Measured values: patent publication US7989639B2 (Novartis AG, priority 2006, dated 2011)
Where a name gives a salt, the structure may show the parent alone.

Assays:
Type in all cases: physicochemical
[1] = Thermogravimetric analysis (TGA) of the salts: loss on drying, desolvation and decomposition temperature; details: for Tdecomposition: approximated by onset of first derivative of thermogravimetric curve vs. temperature, salt sample as obtained from the solvent/temperature; for Tdesolvation: value in brackets after LOD
Excerpt: In addition, “loss on drying” (LOD) refers to weight loss determined between ambient and decomposition temperatures. The later is approximated by the onset of the first derivative of the thermogravimetric curve vs. temperature. […] Salt formation, stoichiometry, and the presence or absence of solvents is confirmed by observing the ^1H-NMR chemical shifts of the corresponding salt forming agents and reaction solvents (the tables contain one characteristic chemical shift for salt forming agents or solvents). […] The extent of protonation of the free base is assessed by the change in the chemical shift of the benzylic (Hbz) protons. […] Finally, “-” indicates a measurement not taken.
A stoichiometric amount of acetic acid was subsequently added to the suspension. The mixture was stirred at either 60° C. or ambient temperature (where a clear solution formed, stirring continued at 4° C.). Solids were collected by filtration and analyzed by XRPD, TGA and in some instances ^1H-NMR.

[2] = as above; details: isothermal hold at 120° C. for 10 minutes
[3] = Hygroscopicity / moisture uptake observed on isolation of the salts; details: observation on isolated solid / during filtration
Procedure: A stoichiometric amount of sodium hydroxide was subsequently added to the suspension. The mixture was stirred at 50° C. Once a clear solution formed, stirring continued at 4° C. Solids were collected by filtration and analyzed by XRPD and TGA.
It is noted that the initially formed yellow powder is a polymorph of the mesylate salt that contains more than the equimolar amount of methane sulfonic acid. […] Upon gentle heating to 40 or 50° C. and within 2 to 4 hours, the yellow powder converts to a white crystalline solid that contains the equimolar amount of the methane sulfonic acid. This salt is non-hygroscopic. It is also advised that addition of the methane sulfonic acid is done at ambient temperature and the temperature increased afterwards. It was observed that addition at higher temperature afforded the immediate precipitation of the salt as a soft and gummy material.

Tdecomposition [1] | SMILES | also measured
160.2 °C | Cc1[nH]c2ccccc2c1CCNCc1ccc(/C=C/C(=O)NO)cc1 [benzoate salt form A, N-hydroxy-3-[4-[[[2-(2-methyl-1H-indol-3-yl)ethyl]amino]methyl]phenyl]-2E-2-propenamide] | 
at 110 °C | Cc1[nH]c2ccccc2c1CCNCc1ccc(/C=C/C(=O)NO)cc1 [benzoate salt form SA, N-hydroxy-3-[4-[[[2-(2-methyl-1H-indol-3-yl)ethyl]amino]methyl]phenyl]-2E-2-propenamide] | LOD % (isothermal) [2]: 5.2%
dec. at 100 °C | Cc1[nH]c2ccccc2c1CCNCc1ccc(/C=C/C(=O)NO)cc1 [benzoate salt form SB, N-hydroxy-3-[4-[[[2-(2-methyl-1H-indol-3-yl)ethyl]amino]methyl]phenyl]-2E-2-propenamide] | LOD % (isothermal) [2]: 6.3%
159.8 °C | Cc1[nH]c2ccccc2c1CCNCc1ccc(/C=C/C(=O)NO)cc1 [hemi-fumarate salt form HA, N-hydroxy-3-[4-[[[2-(2-methyl-1H-indol-3-yl)ethyl]amino]methyl]phenyl]-2E-2-propenamide] | 
95 °C | Cc1[nH]c2ccccc2c1CCNCc1ccc(/C=C/C(=O)NO)cc1 [hemi-malate salt form SA, N-hydroxy-3-[4-[[[2-(2-methyl-1H-indol-3-yl)ethyl]amino]methyl]phenyl]-2E-2-propenamide] | 
>160 °C | Cc1[nH]c2ccccc2c1CCNCc1ccc(/C=C/C(=O)NO)cc1 [hemi-tartarate salt form B, N-hydroxy-3-[4-[[[2-(2-methyl-1H-indol-3-yl)ethyl]amino]methyl]phenyl]-2E-2-propenamide] | 
232.3 °C | Cc1[nH]c2ccccc2c1CCNCc1ccc(/C=C/C(=O)NO)cc1 [hydrochloride salt form A, N-hydroxy-3-[4-[[[2-(2-methyl-1H-indol-3-yl)ethyl]amino]methyl]phenyl]-2E-2-propenamide] | 
150 °C | Cc1[nH]c2ccccc2c1CCNCc1ccc(/C=C/C(=O)NO)cc1 [maleate salt form HA, N-hydroxy-3-[4-[[[2-(2-methyl-1H-indol-3-yl)ethyl]amino]methyl]phenyl]-2E-2-propenamide] | 
~160 °C | Cc1[nH]c2ccccc2c1CCNCc1ccc(/C=C/C(=O)NO)cc1 [sulfate salt form A, N-hydroxy-3-[4-[[[2-(2-methyl-1H-indol-3-yl)ethyl]amino]methyl]phenyl]-2E-2-propenamide] | Hygroscopicity [3]: hygroscopic
162 °C | Cc1[nH]c2ccccc2c1CCNCc1ccc(/C=C/C(=O)NO)cc1 [sulfate salt form SA, N-hydroxy-3-[4-[[[2-(2-methyl-1H-indol-3-yl)ethyl]amino]methyl]phenyl]-2E-2-propenamide] | 

Further lines, the compound ahead of its results:

SMILES | Tdecomposition [1] | also measured
Cc1[nH]c2ccccc2c1CCNCc1ccc(/C=C/C(=O)NO)cc1 [acetate salt form A, N-hydroxy-3-[4-[[[2-(2-methyl-1H-indol-3-yl)ethyl]amino]methyl]phenyl]-2E-2-propenamide] |  | Tdecomposition ([1]; salt formed in AcOEt at 60 °C): 147.9 °C; Tdecomposition ([1]; salt formed in IPA at 60 °C): 148.7 °C; Tdesolvation [1]: 72.5 °C
Cc1[nH]c2ccccc2c1CCNCc1ccc(/C=C/C(=O)NO)cc1 [acetate salt form SA, N-hydroxy-3-[4-[[[2-(2-methyl-1H-indol-3-yl)ethyl]amino]methyl]phenyl]-2E-2-propenamide] | 147.9 °C | Tdesolvation [1]: 107.9 °C
Cc1[nH]c2ccccc2c1CCNCc1ccc(/C=C/C(=O)NO)cc1 [calcium salt, N-hydroxy-3-[4-[[[2-(2-methyl-1H-indol-3-yl)ethyl]amino]methyl]phenyl]-2E-2-propenamide] |  | Hygroscopicity [3]: less hygroscopic than the sodium or potassium salt
Cc1[nH]c2ccccc2c1CCNCc1ccc(/C=C/C(=O)NO)cc1 [gentisate salt form A, N-hydroxy-3-[4-[[[2-(2-methyl-1H-indol-3-yl)ethyl]amino]methyl]phenyl]-2E-2-propenamide] | 235.5 °C | 
Cc1[nH]c2ccccc2c1CCNCc1ccc(/C=C/C(=O)NO)cc1 [hemi-fumarate salt form B, N-hydroxy-3-[4-[[[2-(2-methyl-1H-indol-3-yl)ethyl]amino]methyl]phenyl]-2E-2-propenamide] | 213.2 °C | 
Cc1[nH]c2ccccc2c1CCNCc1ccc(/C=C/C(=O)NO)cc1 [hemi-malonate salt form A, N-hydroxy-3-[4-[[[2-(2-methyl-1H-indol-3-yl)ethyl]amino]methyl]phenyl]-2E-2-propenamide] |  | Tdecomposition ([1]; salt prepared in EtOH): 169.5 °C; Tdecomposition ([1]; salt prepared in IPA): 174.1 °C
Cc1[nH]c2ccccc2c1CCNCc1ccc(/C=C/C(=O)NO)cc1 [hemi-succinate salt form SA, N-hydroxy-3-[4-[[[2-(2-methyl-1H-indol-3-yl)ethyl]amino]methyl]phenyl]-2E-2-propenamide] | 155.8 °C | Tdesolvation [1]: (90.6) (2- ° C.
Cc1[nH]c2ccccc2c1CCNCc1ccc(/C=C/C(=O)NO)cc1 [maleate salt polymorph from 2-propanol (yellow powder)] [N-hydroxy-3-[4-[[[2-(2-methyl-1H-indol-3-yl)ethyl]amino]methyl]phenyl]-2E-2-propenamide] | 118.9 °C | 
Cc1[nH]c2ccccc2c1CCNCc1ccc(/C=C/C(=O)NO)cc1 [mesylate salt form A, N-hydroxy-3-[4-[[[2-(2-methyl-1H-indol-3-yl)ethyl]amino]methyl]phenyl]-2E-2-propenamide] | 170.9 °C | Hygroscopicity ([3]; listed as mesylate salt yellow powder): very highly hygroscopic
Cc1[nH]c2ccccc2c1CCNCc1ccc(/C=C/C(=O)NO)cc1 [mesylate salt form B, N-hydroxy-3-[4-[[[2-(2-methyl-1H-indol-3-yl)ethyl]amino]methyl]phenyl]-2E-2-propenamide] |  | Hygroscopicity ([3]; listed as mesylate salt white crystalline solid): non-hygroscopic
Cc1[nH]c2ccccc2c1CCNCc1ccc(/C=C/C(=O)NO)cc1 [mesylate salt forms A + B, N-hydroxy-3-[4-[[[2-(2-methyl-1H-indol-3-yl)ethyl]amino]methyl]phenyl]-2E-2-propenamide] | 172.8 °C | 
Cc1[nH]c2ccccc2c1CCNCc1ccc(/C=C/C(=O)NO)cc1 [oxalate salts, N-hydroxy-3-[4-[[[2-(2-methyl-1H-indol-3-yl)ethyl]amino]methyl]phenyl]-2E-2-propenamide] |  | Hygroscopicity [3]: appear to absorb water during filtration
Cc1[nH]c2ccccc2c1CCNCc1ccc(/C=C/C(=O)NO)cc1 [phosphate salt form HA, N-hydroxy-3-[4-[[[2-(2-methyl-1H-indol-3-yl)ethyl]amino]methyl]phenyl]-2E-2-propenamide] | 179.6 °C | 
Cc1[nH]c2ccccc2c1CCNCc1ccc(/C=C/C(=O)NO)cc1 [potassium salt, N-hydroxy-3-[4-[[[2-(2-methyl-1H-indol-3-yl)ethyl]amino]methyl]phenyl]-2E-2-propenamide] |  | Hygroscopicity [3]: highly hygroscopic
Cc1[nH]c2ccccc2c1CCNCc1ccc(/C=C/C(=O)NO)cc1 [sodium salt, N-hydroxy-3-[4-[[[2-(2-methyl-1H-indol-3-yl)ethyl]amino]methyl]phenyl]-2E-2-propenamide] |  | Hygroscopicity [3]: highly hygroscopic
Cc1[nH]c2ccccc2c1CCNCc1ccc(/C=C/C(=O)NO)cc1 [zinc salt, N-hydroxy-3-[4-[[[2-(2-methyl-1H-indol-3-yl)ethyl]amino]methyl]phenyl]-2E-2-propenamide] |  | Hygroscopicity [3]: less hygroscopic than the sodium or potassium salt
